Each structure is given as a SMILES string. “Also recorded” adds a separate entry of the source. Read-outs that look alike come from different tables or passages of the source.

Consider seven compounds from patent publication US20250205178A1, “METHODS AND COMPOSITIONS FOR INHIBITING VIRAL […]” (ARIZONA BOARD OF REGENTS ON BEHALF OF THE UNIVERSITY OF …, priority 2022, published 2025).

The target of one series is ZIKV NS5 MTase (Zika virus, UniProt A0A024B7W1). Format: binding.
The target in another series is SARS-CoV-2 NSP16 MTase (Severe acute respiratory syndrome coronavirus 2, UniProt P0DTD1). In words: FL-NAH FP displacement assay, NSP16. Format: binding. Conditions: SAH 25 μM, 31.25 μM or 50 μM; NSP16 0.5 μM; p<0.0001.
Series [1] addresses T1, SARS-CoV-2 NSP14 MTase (Severe acute respiratory syndrome coronavirus 2, UniProt P0DTD1). Format: binding. Conditions: for IC50: 50 nM FL-NAH, NSP14 MTase, read-out: IC50-disp, inhibition of FL-NAH binding.
Another series relates to SARS-CoV-2 WA strain. In words: Checkerboard compound combination assay (plaque) in Vero-E6 cells. Format: cell-based. As to the method: The 2D compound-compound interactions were determined by checkerboard titration in a 96-well plate. Vero-E6 cells were seeded one day before combination test at 3×10^4 cells/each well. The first compound (A) was serially diluted along the x axis (columns 3 to 8); and the second compound (B) was serially diluted along the y axis (from row A to F) in the 96-well plate. The last two columns (columns 9 and 10) contained compound B-alone controls and the last two rows (row G and H) contained compound A-alone controls. After the cells grew into monolayer, the medium was discard, followed by addition of 50 μl compound mixture. Then 50 μl SARS-CoV-2 WA strain was added at MOI of 0.01.
The plate was incubated at 37° C., 5% CO2 for 1 hour. Then 100 μl overlay medium (DMEM+2% FBS+1% Methylcellulose) was added and the plate was further incubated at 37° C., 5% CO2. After 3 days, cells were fixed with 10% neutral formalin for 30 minutes, wash with water for more than 6 times and then stained with 50 μl Crystal Violet (0.5% in methanol/water) for 4 minutes. The staining solution was removed by aspiration and the plate was rinsed with water, and dried thoroughly. Plaques were counted and numbers were recorded to calculate the percentage of inhibition. SynergyFinder was used to analyze the synergistic effect of the two compounds (https://synergyfinder.fimm.fi/synergy/20230202071113839465/). Each combination testing experiment has three replicates.

The target in series [2] is SARS-CoV-2 NSP14 N7-MTase (Severe acute respiratory syndrome coronavirus 2, UniProt P0DTD1). Conditions: read-out: IC50-HTRF, NSP14 MTase activity; GpppA dinucleotide substrate.
Another series addresses ZIKV N7 MTase (Zika virus, UniProt A0A024B7W1). Format: biochemical.
The next series deals with DENV2 replicon. The conditions noted are these: read-out: EC50-DENV2 Replic; DENV2 replicon cell line.
For another series, the system named is SARS-CoV-2. Conditions: read-out: Antiviral EC50; Vero cells, plaques at 72 h post-infection.
A further series concerns ZIKV. In words: Antiviral immunofluorescence assay (IFA), ZIKV. Format: cell-based.
In series [3] the test system is human lung carcinoma A549 cells. In words: WST-8 cytotoxicity assay in A549 cells. Format: cell-based. As to the method:
As previously mentioned, cytotoxicity to the human lung carcinoma A549 cells was assessed using a WST-8 cell proliferation assay kit (Dojindo Molecular Technologies, Inc.).
To further characterize these candidate inhibitors, we investigated the cytotoxicity of NSC 111552 and 288387 to human A549 lung carcinoma cells, using a WST-8 cell viability kit, as we described previously.

The next series concerns DENV2. Kind of series: Antiviral immunofluorescence assay (IFA), DENV2. Format: cell-based.
Series [4] has as its target T1, SARS-CoV-2 NSP14 MTase. The conditions noted are these: read-out: IC50-TLC, NSP14 MTase activity.
A further series concerns the target WNV N7 MTase (West Nile virus, UniProt Q9Q6P4). Format: biochemical.
The target of series [5] is T1, SARS-CoV-2 NSP14 MTase. Conditions: read-out: IC50-MS, NSP14 MTase activity.
For series [6], the target named is T2, YFV MTase (Yellow fever virus, UniProt P03314). Conditions: read-out: IC50-disp.
T2 sequence (P03314 2507-2771 limits assumed): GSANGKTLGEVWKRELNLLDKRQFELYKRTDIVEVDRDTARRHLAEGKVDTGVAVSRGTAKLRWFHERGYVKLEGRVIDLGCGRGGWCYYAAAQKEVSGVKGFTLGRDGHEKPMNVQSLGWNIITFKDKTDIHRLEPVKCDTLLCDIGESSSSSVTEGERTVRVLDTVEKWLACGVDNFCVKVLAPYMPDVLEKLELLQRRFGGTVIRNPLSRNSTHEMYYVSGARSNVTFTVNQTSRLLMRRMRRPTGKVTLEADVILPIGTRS
Series [7] has as its target T3, WNV MTase (West Nile virus, UniProt Q9Q6P4). Format: binding.
Series [8] concerns the target T4, DENV3 MTase (Dengue virus type 3, UniProt Q6YMS4). Kind of series: TLC MTase activity assay, DENV3. Format: biochemical.
In series [9] the test system is SARS-CoV-2 WT strain (Washington strain). In words: Immunofluorescence assay, SARS-CoV-2 WT Washington strain. Conditions: Vero E6, WT Washington strain 0.01 MOI, 24 h. Format: cell-based.
The subject of series [10] is SARS-CoV-2 Omicron strain (BA.1.1). In words: Immunofluorescence assay, SARS-CoV-2 Omicron strain. Format: cell-based.
The next series has as its target DENV3 NS5 N7 MTase (Dengue virus type 3, UniProt Q6YMS4). In words: HTRF MTase functional assay, DENV3. Format: biochemical.
Another series has as its target SARS-CoV-2 NSP14 (Severe acute respiratory syndrome coronavirus 2, UniProt P0DTD1). Conditions: read-out: NSP14 KD; MST, NSP14 40 nM.
In another series the target is Human RNA MTase (hRNMT) (Homo sapiens, UniProt O43148). The conditions noted are these: read-out: IC50-disp.
Chain of Human RNA MTase (hRNMT) (O43148 whole entry): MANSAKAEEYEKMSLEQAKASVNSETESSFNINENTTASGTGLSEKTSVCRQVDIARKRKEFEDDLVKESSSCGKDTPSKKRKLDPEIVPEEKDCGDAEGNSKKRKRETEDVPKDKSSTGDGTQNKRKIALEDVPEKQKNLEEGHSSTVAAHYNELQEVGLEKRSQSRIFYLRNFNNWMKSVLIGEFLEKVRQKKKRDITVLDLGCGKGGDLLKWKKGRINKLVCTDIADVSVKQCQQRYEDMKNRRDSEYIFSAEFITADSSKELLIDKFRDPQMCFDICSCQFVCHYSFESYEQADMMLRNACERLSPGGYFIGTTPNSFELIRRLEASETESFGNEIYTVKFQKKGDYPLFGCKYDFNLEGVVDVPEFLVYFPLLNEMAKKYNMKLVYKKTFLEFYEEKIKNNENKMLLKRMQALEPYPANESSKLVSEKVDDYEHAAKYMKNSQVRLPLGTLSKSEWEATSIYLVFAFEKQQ
A further series addresses YFV N7 MTase (Yellow fever virus, UniProt P03314). The conditions noted are these: read-out: IC50-HTRF.
The target in series [11] is T5, DENV3 NS5 MTase (Dengue virus type 3, UniProt Q6YMS4). The conditions noted are these: MST.
T5 sequence (Q6YMS4 2492-2753): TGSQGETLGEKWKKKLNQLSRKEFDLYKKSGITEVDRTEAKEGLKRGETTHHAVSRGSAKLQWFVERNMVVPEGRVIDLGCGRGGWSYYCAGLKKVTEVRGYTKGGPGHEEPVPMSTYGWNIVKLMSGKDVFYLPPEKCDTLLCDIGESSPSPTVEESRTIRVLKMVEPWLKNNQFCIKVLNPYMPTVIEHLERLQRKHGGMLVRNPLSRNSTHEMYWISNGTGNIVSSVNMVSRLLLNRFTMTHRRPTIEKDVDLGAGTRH
In series [12] the target is T5, DENV3 NS5 MTase. In words: FL-NAH FP displacement assay, DENV3 NS5. Format: binding.
For series [13], the target named is T2, YFV MTase. Format: binding. Conditions: read-out: KD of FL-NAH.
For series [14], the target named is T3, WNV MTase. Format: binding. The conditions noted are these: read-out: KD of FL-NAH.
Another series addresses ZIKV MTase (Zika virus, UniProt A0A024B7W1). Format: binding. Conditions: read-out: KD of FL-NAH.
Series [15] deals with T4, DENV3 MTase. Kind of series: FL-NAH FP binding assay, DENV3 MTase.
The target of the next series is NSP14-NSP10 complex (Severe acute respiratory syndrome coronavirus 2, UniProt P0DTD1). Kind of series: FL-NAH FP binding assay, NSP14-NSP10 complex. More on the design: species or system SARS-CoV-2. The conditions noted are these: 50 nM FL-NAH, read-out: binding affinity of FL-NAH. As to the method: FP was calculated by measuring the parallel and perpendicular fluorescence with excitation and emission wavelengths of 485 nm and 528 nm, respectively. N=3
Using purified proteins, we investigated whether binding of FL-NAH to the NSP14 MTase could be monitored by FP. […] In addition, we investigated if FL-NAH is also bound to the NSP14/NSP10 complex. […] The results confirmed that NSP10 was not required for the NSP14 MTase function. Since NSP10 had only minimal effects on the NSP14 MTase activity, all the following experiments were performed using the NSP14 MTase alone.

T3 sequence (Q9Q6P4 2529-2794 limits assumed): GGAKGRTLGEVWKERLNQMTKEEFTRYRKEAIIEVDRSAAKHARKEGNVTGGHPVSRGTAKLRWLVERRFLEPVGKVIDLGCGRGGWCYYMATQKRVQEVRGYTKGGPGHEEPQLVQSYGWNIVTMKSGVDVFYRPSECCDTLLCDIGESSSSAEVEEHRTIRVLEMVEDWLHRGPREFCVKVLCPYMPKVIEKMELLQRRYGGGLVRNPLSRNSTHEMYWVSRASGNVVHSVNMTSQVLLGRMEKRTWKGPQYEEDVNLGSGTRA
T4 sequence (Q6YMS4 2492-2753): as the sequence (Q6YMS4 2492-2753) above
Chain of ZIKV NS5 MTase (A0A024B7W1 2521-2785 limits assumed): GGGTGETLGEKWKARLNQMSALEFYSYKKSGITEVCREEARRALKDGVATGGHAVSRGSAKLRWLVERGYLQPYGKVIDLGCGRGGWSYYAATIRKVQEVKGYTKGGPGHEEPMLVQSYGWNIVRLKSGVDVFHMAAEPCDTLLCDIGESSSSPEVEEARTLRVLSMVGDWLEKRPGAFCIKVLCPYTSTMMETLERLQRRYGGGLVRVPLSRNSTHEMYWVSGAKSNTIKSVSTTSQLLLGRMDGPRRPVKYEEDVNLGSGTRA
Chain of WNV N7 MTase (Q9Q6P4 2529-2794 limits assumed): as the sequence (Q9Q6P4 2529-2794 limits assumed) above
Chain of DENV3 NS5 N7 MTase (Q6YMS4 2492-2753): as the sequence (Q6YMS4 2492-2753) above
Chain of YFV N7 MTase (P03314 2507-2771 limits assumed): as the sequence (P03314 2507-2771 limits assumed) above
Chain of ZIKV N7 MTase (A0A024B7W1 2521-2785 limits assumed): as the sequence (A0A024B7W1 2521-2785 limits assumed) above
Chain of ZIKV MTase (A0A024B7W1 2521-2785 limits assumed): as above

`Nc1ncnc2c1ncn2[C@@H]1O[C@H](CSCC[C@H](N)C(=O)O)[C@@H](O)[C@H]1O` [SAH, S-adenosyl-L-homocysteine]: the “inhibition of FL-NAH binding (FP)” value at ZIKV NS5 MTase is “inhibited; also recorded: quenched”; on SARS-CoV-2 NSP16 MTase, “inhibited; also recorded: quenched”; on SARS-CoV-2 NSP14 MTase [1] (SAH 25 μM, 31.25 μM or 50 μM, NSP14 0.5 μM, p<0.0001) it was “inhibited”.
Take `CCC(CC)COC(=O)[C@H](C)N[P@](=O)(OC[C@H]1O[C@@](C#N)(c2ccc3c(N)ncnn23)[C@H](O)[C@@H]1O)Oc1ccccc1` [remdesivir]: the EC50 was 0.04 µM in the series on SARS-CoV-2 WA strain (Severe acute respiratory syndrome coronavirus 2, Vero C1008, remdesivir alone, read-out: EC50) and 0.017 µM in the series with SARS-CoV-2 WA strain (Severe acute respiratory syndrome coronavirus 2, Vero C1008, remdesivir with NSC111552 ([…]), read-out: EC50). Moreover, in the series with SARS-CoV-2 WA strain (remdesivir with NSC111552 ([…])), the EC50 decrease entry is given as “about 2.4 fold”.
With `CC(=O)c1cc(O)c2ccccc2c1O` [NSC 111552], the 50% inhibitory concentration (IC50) in series [2] stood at 2.2 µM; at ZIKV N7 MTase, 12.9 µM; at SARS-CoV-2 NSP14 MTase [4], 7 µM; against WNV N7 MTase it was 5.2 µM; on SARS-CoV-2 NSP14 MTase [5] it was 1.5 µM; at YFV MTase [6] it was 46 µM. The IC50 against ZIKV NS5 MTase came to 7.3 µM; on WNV MTase [7], 5.7 µM; on DENV3 MTase [8], 1.1 µM; at DENV3 NS5 N7 MTase it was 3.9 µM; on SARS-CoV-2 NSP14 MTase [1], 5.1 µM; on Human RNA MTase (hRNMT), 63.3 µM. Further, the IC50 worked out at 26.7 µM at YFV N7 MTase; 1.6 µM at DENV3 NS5 MTase [12] (DENV3, DTT (1 mM)); 1.1 µM at DENV3 NS5 MTase [12] (DENV3, No DTT). Also, the EC50 with DENV2 replicon is 5 µM; with SARS-CoV-2 it was 8.5 µM; with ZIKV it was 0.9 µM; with DENV2, 0.32 µM. The compound further came in with a CC50 in [3] of roughly 187 µM. Besides, the “maximal ZIP-score” value came out at 21 with SARS-CoV-2 WA strain (NSC111552 in combination with nirmatrelvir) and 24 in the series on SARS-CoV-2 WA strain (NSC111552 in combination with remdesivir). Moreover, the “viral titer in IFA” value in series [9] and in [10] was “dose-dependently reduced the viral titer” in each case. The Kd on SARS-CoV-2 NSP14 was 2.1 µM; on DENV3 NS5 MTase [11], 4.6 µM.
For `Nc1ncnc2c1ncn2[C@@H]1O[C@H](CN(CC[C@H](N)C(=O)O)Cc2cn(CCNC(=O)c3ccc4c(c3)C(=O)OC43c4ccc(O)cc4Oc4cc(O)ccc43)nn2)[C@@H](O)[C@H]1O` [FL-NAH, fluorescein N-adenosylhomocysteine], the Kd is 3 µM at YFV MTase [13]; 0.28 µM on WNV MTase [14]; 3.5 µM on ZIKV MTase; 0.61 µM at DENV3 MTase [15]; 0.81 µM on NSP14-NSP10 complex.
On to `COCCn1c2nc(=O)n(-c3ccccc3)c(=O)c-2nc2ccccc21` [NSC 288387], for which the IC50 is 2.2 µM in series [2]; 6.8 µM at ZIKV N7 MTase; 2.5 µM on SARS-CoV-2 NSP14 MTase [4]; 12.2 µM against WNV N7 MTase; 4.3 µM at SARS-CoV-2 NSP14 MTase [5]; 10 µM at YFV MTase [6]. The IC50 was found to be 4.9 µM against ZIKV NS5 MTase; 13 µM on WNV MTase [7]; 1.6 µM on DENV3 MTase [8]; 6 µM at DENV3 NS5 N7 MTase; 2.7 µM on SARS-CoV-2 NSP14 MTase [1]; 35.5 µM at Human RNA MTase (hRNMT). Further, the IC50 amounted to 11.2 µM on YFV N7 MTase; 3.9 µM on DENV3 NS5 MTase [12] (DENV3, DTT (1 mM)); 1.3 µM on DENV3 NS5 MTase [12] (DENV3, No DTT). Besides, the half-maximal effective concentration (EC50) in the series with DENV2 replicon is 11.4 µM; with SARS-CoV-2 it was 5.7 µM; in the series with ZIKV, 0.69 µM; in the series with DENV2, 0.53 µM. In series [3], this compound gave a CC50 of 57 µM. The “viral titer in IFA” value in series [9] and in [10] was “dose-dependently reduced the viral titer” throughout. Moreover, the Kd on SARS-CoV-2 NSP14 was 1.5 µM; on DENV3 NS5 MTase [11] it was 3.2 µM. Besides, on DENV3 NS5 MTase [12] (with vs without DTT), the “effect of DTT (1 mM) on potency in inhibiting FL-NAH binding” value is “reducing its potency by about threefold”.
`C[S+](CC[C@H](N)C(=O)O)C[C@H]1O[C@@H](n2cnc3c(N)ncnc32)[C@H](O)[C@@H]1O` (stereo partly shown) [SAM, S-adenosylmethionine]: the “inhibition of FL-NAH binding (FP)” value at ZIKV NS5 MTase and on SARS-CoV-2 NSP16 MTase was “quenched” in each case.
On to `CC(C)(C)[C@H](NC(=O)C(F)(F)F)C(=O)N1C[C@H]2[C@@H]([C@H]1C(=O)N[C@H](C#N)C[C@@H]1CCNC1=O)C2(C)C` [nirmatrelvir], for which the EC50 is 0.056 µM in the series on SARS-CoV-2 WA strain (Severe acute respiratory syndrome coronavirus 2, Vero C1008, nirmatrelvir alone, read-out: EC50) and roughly 0.031 µM in the series with SARS-CoV-2 WA strain (Severe acute respiratory syndrome coronavirus 2, Vero C1008, nirmatrelvir in the presence of NSC111552). Further, the EC50 shift with SARS-CoV-2 WA strain (nirmatrelvir, in the presence of NSC111552) is recorded as roughly 1.8 fold.
